Patent publication US20150250714A1, “PHARMACEUTICAL COMPOSITIONS AND DELIVERY DEVICES COMPRISING STINGING CELLS OR CAPSULES” (NANOCYTE (ISRAEL) LTD., priority 2010, published 2015)
Read-outs that look alike come from different tables or passages of the source.

How the values were obtained:
[1] = topical 400 mg
Description: Cnidocysts were isolated from the filament acontia of Aiptasia diaphana based on their high density and high stability in salts as described previously (1, 2) (FIGS. 1A-C). Briefly, filaments were incubated in 1M sodium citrate, followed by two centrifugations in 70% percoll gradients. The isolated cnidocysts were washed with decreasing concentrations of NaCl (1M to 0.2M) and freeze-dried. The purified cnidocysts were kept dry until use, or formulated in an anhydrous gel consisting of 2% hydroxyl propyl cellulose in absolute ethanol.
The study included 3 dosing sessions as detailed in Table 3 below.

[2] = oral; cited from earlier work

Compound | Cumulative Value (CV) % of atropine concentrations, Topical ([1]; Time 0.17) | Cumulative Value (CV) % of atropine concentrations, Topical ([1]; Time 0.25) | Cumulative Value (CV) % of atropine concentrations, Topical ([1]; Time 0.5) | Cumulative Value (CV) % of atropine concentrations, Topical ([1]; Time 0.75) | Cumulative Value (CV) % of atropine concentrations, Topical ([1]; Time 1) | Cumulative Value (CV) % of atropine concentrations, Topical ([1]; Time 2) | Cumulative Value (CV) % of atropine concentrations, Topical ([1]; Time 4) | Cumulative Value (CV) % of atropine concentrations, Topical ([1]; Time 12) | Cumulative Value (CV) % of atropine concentrations, Topical ([1]; Time 24) | fraction absorbed when taken orally [2]
CN1[C@@H]2CC[C@H]1C[C@@H](OC(=O)C(CO)c1ccccc1)C2 (mixture of isomers) [atropine, Atropine] | 43.6% | 76.9% | 42.5% | 148.9% | 103.7% | 98.9% | 113.2% | 96.4% | 144.3% | 
NCCCC(O)(P(=O)(O)O)P(=O)(O)O [sodium alendronate] |  |  |  |  |  |  |  |  |  | 0.64%
